Source: US20140127231A1, “p38 MAPK Pathway Inhibitors as Female-Specific Therapeutics” (UNIVERSITY OF VERMONT, priority 2012, published 2014)
Entries after “also recorded” stand apart in the source; their conditions may differ.

Key:
[1] = tested on: experimental autoimmune encephalomyelitis (EAE); test: Active EAE, 2×MOG35-55/CFA protocol, clinical course (Example 3); type: in vivo, C57BL/6J (B6) mice; details: 5 mg/kg/day i.p. daily from day of immunization; for EAE disease course: 5 mg/kg/day
Protocol: Female (FIG. 15A) and male (FIG. 15B) B6 mice were immunized using the 2×MOG35-55/CFA protocol, followed by daily injections of SB203580 or carrier. Data represent 2 independent experiments, pooled. Data were analyzed as indicated in Materials and Methods. […] For individual time points, * ≦0.05; ** ≦0.01, *** ≦0.001, **** ≦0.0001. Numbers in parentheses indicate the total number of animals studied.
EAE was induced essentially as described previously (Noubade R, et al., J Clin Invest. 2007 November; 117(11):3507-18). Briefly, mice were injected s.c. with an emulsion containing 100 μg of MOG35-55 peptide ([…]; SEQ ID NO: 1) (Anaspec, USA) and complete Freund's adjuvant (CFA) (Sigma-Aldrich, St. Louis, Mo.) supplemented with 200 μg of Mycobacterium tuberculosis H37Ra (Difco Laboratories, Detroit, Mich.) in the posterior right and left flanks. One week later all mice were similarly injected at two sites on the right and left flank anterior of the initial injection sites (2×MOG35-55/CFA). Alternatively, mice were immunized with 200 μg of MOG35-55 in CFA, followed by i.v. administration of 200 ng pertussis toxin (List Biological) (1×MOG35-55/CFA/PTX). In some experiments (as indicated), mice received 5 mg/kg/day of SB203580 dihydrochloride (Tocris, Ellisville, Mo.) by i.p. injection in a total volume of 200 μl or an equal volume of carrier daily starting on the day of immunization. Mice were scored daily starting at day 10 post-injection as previously described (Noubade R, et al., J Clin Invest. 2007 November; 117(11):3507-18). Passive EAE was induced as follows. […]
All statistical analyses were performed using GraphPad Prism 6 software (GraphPad Software Inc, San Diego, Calif.). The significance of differences in cytokine production and flow cytometry data were determined using 2-way ANOVA. The significance of differences observed in clinical course of EAE was determined by 2-way ANOVA and post-hoc analysis using Fisher's LSD test for individual time points (significance indicated by “*” above each time point). […] EAE data from replicate experiments were analyzed by heterogeneity testing. […]

[2] = tested on: experimental autoimmune encephalomyelitis (EAE); test: Active EAE, 2×MOG35-55+CFA, clinical course (Example 1/2); type: in vivo, C57BL/6J (B6) mice; details: for Clinical EAE course: daily treatment from D0, 5 mg/kg/d IP
Protocol: EAE was induced in female C57BL/6J mice as described previously (Noubade et al., 2007, J Clin Invest., 117(11):3507-3518). Mice were injected subcutaneously with an emulsion containing 200 μg of MOG35-55 peptide ([…] (SEQ ID NO: 1) and complete Freund adjuvant (CFA; Sigma-Aldrich) supplemented with 200 μg of Mycobacterium tuberculosis H37RA (Difco Laboratories) in the posterior right and left flank; 1 week later, all mice were similarly injected at 2 sites on the right and left flank anterior of the initial injection sites (2×MOG35-55+CFA). Mice received 5 mg/kg/d SB203580 dihydrochloride (Tocris) by IP injection in a total volume of 200 μL or an equal volume of carrier every day from the day of immunization.
EAE was induced in B10.BR, MKK6-Tg, and dn-p38-Tg mice by immunizing with a single injection of 200 μg of MOG97-114 (TCFFRDHSYQEEAAVELK (SEQ ID NO: 2)) or PLP180-209 ([…] (SEQ ID NO: 3)) in CFA. Immediately thereafter, each animal received 200 ng of PTX (List Biologic Laboratories) by IV injection. Mice were scored daily starting at day 10 after injection as previously described (Noubade et al., 2007, J Clin Invest., 117(11):3507-3518). Clinical quantitative trait variables were generated as previously described (Butterfield et al., 1998, J Immunol., 161(4):1860-1867).
Age-matched male and female C57BL/6J (B6) mice were treated with the p38 MAPK inhibitor SB203580 (SB) starting at the time of immunization for the induction of EAE with myelin oligodendrocyte glycoprotein peptide 35-55 (MOG35-55) and complete Freund's adjuvant (CFA). Clinical EAE course in male and female B6 mice immunized with 2×MOG35-55-CFA treated daily with either carrier or SB starting on D0. […] In separate experiments, Clinical EAE course in female B6 mice immunized with 2×MOG35-55-CFA and randomly selected for daily treatment with either carrier or SB upon reaching a clinical score≧1. It was observed that disease progression could also be halted in female mice if the inhibitor was administered at the first onset of clinical signs (FIG. 1B).

[3] = female B6 mice, treatment from D0 stopped after 30 days

## C[S+]([O-])c1ccc(-c2nc(-c3ccncc3)c(-c3ccc(F)cc3)[nH]2)cc1 (stereo not shown) [SB203580]
[1]; female B6 mice
  EAE disease course: robustly ameliorated; also recorded: significant difference in EAE course
[1]; male B6 mice
  EAE onset: accelerated
  EAE disease course: showed no therapeutic efficacy; also recorded: augmented; also recorded: did not reduce EAE
[2]; female B6 mice
  Clinical EAE course: female-specific therapy for EAE; also recorded: ameliorated EAE
[2]; female B6 mice, listed as SB
  Clinical EAE course: fully prevented disease; also recorded: completely inhibits EAE
[2]; female B6 mice, daily treatment started upon reaching clinical score ≧1
  Disease progression (clinical EAE course): halted
[2]; female B6 mice, re-treated from D41 thru D60
  Disease severity on readministration: modest reduction and stabilization of their disease severity
[2]; [3]
  EAE severity reached after discontinuing treatment: equivalent severity to those seen in carrier-treated mice
  Time to appearance of clinical signs of EAE after discontinuing treatment: 2 to 3 days
[2]; male B6 mice, listed as SB
  Clinical EAE course: completely unresponsive
